Key:
[1] = target: cGMP-specific 3',5'-cyclic phosphodiesterase (Homo sapiens, UniProt O76074); test: DRUGMATRIX: Phosphodiesterase PDE5 enzyme inhibition (substrate: [3H]cGMP + cGMP); format: tissue-based; details: platelet; Not Active = under 50% inhibition at 10 µM
[2] = target: T1, C-X-C chemokine receptor type 1 (Homo sapiens, UniProt P25024); further: in other assays of this panel Not Active means under 50% inhibition at 10 µM
T1 sequence (P25024 whole entry): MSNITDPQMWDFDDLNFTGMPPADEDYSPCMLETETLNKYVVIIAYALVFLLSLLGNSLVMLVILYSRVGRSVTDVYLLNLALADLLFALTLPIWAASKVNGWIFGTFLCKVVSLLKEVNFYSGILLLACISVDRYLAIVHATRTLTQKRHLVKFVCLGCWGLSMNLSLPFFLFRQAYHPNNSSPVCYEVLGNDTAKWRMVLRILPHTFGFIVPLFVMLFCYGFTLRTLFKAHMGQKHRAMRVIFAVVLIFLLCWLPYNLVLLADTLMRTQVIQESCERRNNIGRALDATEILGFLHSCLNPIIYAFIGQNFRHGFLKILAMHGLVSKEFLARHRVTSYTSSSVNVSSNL

[3] = target: Vascular endothelial growth factor receptor 1 (Homo sapiens, UniProt P17948); format: cell-based; details: huvec; further: in other assays of this panel Not Active means under 50% inhibition at 10 µM
Sequence of Vascular endothelial growth factor receptor 1 (P17948 whole entry): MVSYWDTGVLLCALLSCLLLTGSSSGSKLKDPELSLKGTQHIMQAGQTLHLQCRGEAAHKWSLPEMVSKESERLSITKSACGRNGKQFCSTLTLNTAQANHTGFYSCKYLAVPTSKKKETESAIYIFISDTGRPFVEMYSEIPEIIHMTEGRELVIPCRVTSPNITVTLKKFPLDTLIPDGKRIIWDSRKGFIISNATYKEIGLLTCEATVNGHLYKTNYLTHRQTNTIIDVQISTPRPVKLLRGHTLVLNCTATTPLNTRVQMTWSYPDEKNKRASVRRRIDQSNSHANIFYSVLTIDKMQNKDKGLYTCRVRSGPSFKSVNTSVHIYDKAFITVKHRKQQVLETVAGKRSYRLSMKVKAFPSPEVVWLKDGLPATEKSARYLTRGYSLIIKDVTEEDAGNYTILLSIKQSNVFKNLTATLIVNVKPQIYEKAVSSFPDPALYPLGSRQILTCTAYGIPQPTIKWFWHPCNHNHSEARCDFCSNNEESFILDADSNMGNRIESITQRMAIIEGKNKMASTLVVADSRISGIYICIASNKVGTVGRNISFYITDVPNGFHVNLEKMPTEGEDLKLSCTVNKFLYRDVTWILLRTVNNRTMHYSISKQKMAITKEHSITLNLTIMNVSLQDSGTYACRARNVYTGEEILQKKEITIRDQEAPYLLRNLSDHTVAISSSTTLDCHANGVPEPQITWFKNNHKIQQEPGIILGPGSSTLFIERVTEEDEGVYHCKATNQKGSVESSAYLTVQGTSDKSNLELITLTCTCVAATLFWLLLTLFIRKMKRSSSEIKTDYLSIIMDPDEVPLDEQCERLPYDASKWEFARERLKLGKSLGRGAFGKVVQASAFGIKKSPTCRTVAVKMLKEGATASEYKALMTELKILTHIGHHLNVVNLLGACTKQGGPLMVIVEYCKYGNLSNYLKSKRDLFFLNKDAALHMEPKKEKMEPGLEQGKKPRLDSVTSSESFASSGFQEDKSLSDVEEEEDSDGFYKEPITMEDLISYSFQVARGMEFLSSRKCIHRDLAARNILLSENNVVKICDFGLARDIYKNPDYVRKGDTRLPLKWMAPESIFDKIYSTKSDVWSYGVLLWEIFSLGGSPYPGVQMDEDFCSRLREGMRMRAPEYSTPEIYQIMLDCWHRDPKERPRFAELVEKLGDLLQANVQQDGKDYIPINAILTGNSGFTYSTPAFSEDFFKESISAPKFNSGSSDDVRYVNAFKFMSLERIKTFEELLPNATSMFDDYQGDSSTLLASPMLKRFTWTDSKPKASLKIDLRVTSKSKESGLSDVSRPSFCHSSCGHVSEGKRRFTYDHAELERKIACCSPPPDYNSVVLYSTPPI

[4] = DRUGMATRIX: Phosphodiesterase PDE3 enzyme inhibition (substrate: [3H]cAMP + cAMP); format: tissue-based, Homo sapiens; details: platelet; Not Active = under 50% inhibition at 10 µM
[5] = DRUGMATRIX: Sodium/nucleoside co-transporter radioligand binding (ligand: nitrobenzylthioinosine); format: cell membranes, Cavia porcellus, Dunkin-Hartley, Cerebral cortex, Membrane; details: Not Active = under 50% inhibition at 10 µM
[6] = target: 5-hydroxytryptamine receptor 2B (Homo sapiens, UniProt P41595); format: cell membranes, CHO-K1, Membrane; details: for Ki: read-out: Ki; on all read-outs here: in other assays of this panel Not Active means under 50% inhibition at 10 µM
Sequence of 5-hydroxytryptamine receptor 2B (P41595 whole entry): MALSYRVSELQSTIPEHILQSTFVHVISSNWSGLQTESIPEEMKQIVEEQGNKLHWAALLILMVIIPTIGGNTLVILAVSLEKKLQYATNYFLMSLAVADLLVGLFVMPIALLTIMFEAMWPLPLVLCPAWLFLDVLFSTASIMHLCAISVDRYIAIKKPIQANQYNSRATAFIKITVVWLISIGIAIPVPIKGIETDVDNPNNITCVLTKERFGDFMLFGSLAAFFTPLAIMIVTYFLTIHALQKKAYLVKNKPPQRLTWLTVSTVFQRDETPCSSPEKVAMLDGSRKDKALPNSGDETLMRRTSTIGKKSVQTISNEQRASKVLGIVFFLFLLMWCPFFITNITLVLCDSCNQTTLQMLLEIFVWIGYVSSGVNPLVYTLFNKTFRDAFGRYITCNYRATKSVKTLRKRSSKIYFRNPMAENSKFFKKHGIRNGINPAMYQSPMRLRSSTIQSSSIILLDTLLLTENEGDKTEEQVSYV

[7] = target: T2, Alpha-1B adrenergic receptor (Rattus norvegicus, UniProt P15823); test: DRUGMATRIX: Alpha-1B adrenergic receptor radioligand binding (ligand: prazosin); format: cell membranes, Wistar, Liver, Membrane; details: Not Active = under 50% inhibition at 10 µM; for Ki: read-out: Ki
T2 sequence (P15823 whole entry): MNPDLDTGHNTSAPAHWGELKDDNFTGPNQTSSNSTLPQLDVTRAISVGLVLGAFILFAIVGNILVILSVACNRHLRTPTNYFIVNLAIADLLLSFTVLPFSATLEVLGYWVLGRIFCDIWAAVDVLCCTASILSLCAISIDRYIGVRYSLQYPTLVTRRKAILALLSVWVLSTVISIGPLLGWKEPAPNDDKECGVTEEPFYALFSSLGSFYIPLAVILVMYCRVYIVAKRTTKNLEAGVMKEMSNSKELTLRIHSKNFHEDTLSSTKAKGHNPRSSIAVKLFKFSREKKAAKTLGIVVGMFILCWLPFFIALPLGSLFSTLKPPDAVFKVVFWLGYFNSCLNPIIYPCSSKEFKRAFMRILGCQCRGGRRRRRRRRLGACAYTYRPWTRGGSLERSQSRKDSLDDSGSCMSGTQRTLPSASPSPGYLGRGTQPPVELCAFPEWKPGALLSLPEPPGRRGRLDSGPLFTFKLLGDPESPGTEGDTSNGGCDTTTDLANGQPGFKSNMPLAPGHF

[8] = target: T3, Amine oxidase [flavin-containing] A (Homo sapiens, UniProt P21397); test: DRUGMATRIX: Monoamine Oxidase MAO-A enzyme inhibition (substrate: Kynuramine); design: species or system BTI-TN-5B1-4; details: bti-tn-5b1-4; Not Active = under 50% inhibition at 10 µM
T3 sequence (P21397 whole entry): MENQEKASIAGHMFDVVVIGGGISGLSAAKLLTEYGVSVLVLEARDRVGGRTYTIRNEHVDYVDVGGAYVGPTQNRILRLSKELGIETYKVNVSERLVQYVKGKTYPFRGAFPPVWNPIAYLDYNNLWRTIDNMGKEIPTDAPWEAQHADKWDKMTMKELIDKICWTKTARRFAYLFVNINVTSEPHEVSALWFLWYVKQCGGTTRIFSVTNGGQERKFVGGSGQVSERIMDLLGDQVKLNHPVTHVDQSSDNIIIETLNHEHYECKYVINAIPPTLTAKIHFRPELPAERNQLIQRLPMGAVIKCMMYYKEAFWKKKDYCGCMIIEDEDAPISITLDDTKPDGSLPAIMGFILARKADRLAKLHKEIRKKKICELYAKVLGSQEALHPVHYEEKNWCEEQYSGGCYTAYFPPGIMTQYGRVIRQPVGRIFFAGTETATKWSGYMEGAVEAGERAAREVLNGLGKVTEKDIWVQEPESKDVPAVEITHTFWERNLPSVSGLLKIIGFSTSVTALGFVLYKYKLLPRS

SMILES | IC50 [1] | IC50 [2] | IC50 [3] | IC50 [4] | Ki [4] | IC50 [5] | Ki [5] | IC50 ([6]; cho-k1) | IC50 [7] | IC50 [8] | IC50 ([7]; read-out: IC50) | Ki [7] | IC50 ([6]; read-out: IC50) | Ki [6]
COCCc1ccc(OCC(O)CNC(C)C)cc1 (stereo not drawn) [METOPROLOL] | Not Active | Not Active | Not Active | Not Active | Not Active | Not Active | Not Active | Not Active | Not Active | Not Active | – | – | – | –
COc1cc2nc(N3CCN(C(=O)C4COc5ccccc5O4)CC3)nc(N)c2cc1OC (stereo not drawn) [DOXAZOSIN] | Not Active | Not Active | Not Active | Not Active | Not Active | Not Active | Not Active | – | – | Not Active | 0.751 nM | 0.416 nM | – | –
NCCCCCC(=O)O [AMINOCAPROIC ACID] | Not Active | Not Active | Not Active | Not Active | Not Active | Not Active | Not Active | Not Active | Not Active | Not Active | – | – | – | –
CC(C)(C)NCC(O)c1cc(Cl)c(N)c(Cl)c1 (stereo not drawn) [CLENBUTEROL] | Not Active | Not Active | Not Active | Not Active | Not Active | Not Active | Not Active | Not Active | Not Active | Not Active | – | – | – | –
CCCN1C[C@H](CSC)C[C@@H]2c3cccc4[nH]cc(c34)C[C@H]21 [PERGOLIDE] | Not Active | Not Active | Not Active | Not Active | Not Active | Not Active | Not Active | – | – | Not Active | 2620 nM | 1450 nM | 76 nM | 49 nM
CN(C)C(=O)Oc1cc(OC(=O)N(C)C)cc(C(O)CNC(C)(C)C)c1 (stereo not drawn) [BAMBUTEROL] | Not Active | Not Active | Not Active | Not Active | Not Active | Not Active | Not Active | Not Active | Not Active | Not Active | – | – | – | –
c1ccc(Nc2ccc(Nc3ccccc3)cc2)cc1 | Not Active | Not Active | Not Active | Not Active | Not Active | Not Active | Not Active | – | Not Active | Not Active | – | – | 142 nM | 90 nM
Cc1cc(C(C#N)c2ccc(Cl)cc2)c(Cl)cc1NC(=O)c1cc(I)cc(I)c1O (stereo not drawn) [CLOSANTEL] | Not Active | Not Active | Not Active | Not Active | Not Active | Not Active | Not Active | Not Active | Not Active | Not Active | – | – | – | –
Cc1ccc2cc3c(ccc4ccccc43)c3c2c1CC3 [3-METHYLCHOLANTHRENE] | Not Active | Not Active | Not Active | Not Active | Not Active | Not Active | Not Active | Not Active | Not Active | Not Active | – | – | – | –
Nc1nc2c(ncn2CCC(CO)CO)c(=O)[nH]1 [PENCICLOVIR] | Not Active | Not Active | Not Active | Not Active | Not Active | Not Active | Not Active | Not Active | Not Active | Not Active | – | – | – | –
